The text below walks through data of US10947366B2, “Hollow mineral tubes comprising essential oils and uses thereof” (TECHNION RESEARCH & DEVELOPMENT FOUNDATION LTD., priority 2015, dated 2021).

Like-named read-outs stand apart in the source and are kept apart here.

Series [1] in a line: Thermal gravimetric analysis (TGA) of EOs and HNTs/EO hybrids, thermal stability. The note with it: 20° C./min, nitrogen. The class given is physicochemical. On the procedure: (§1) Hybrids were characterized by thermal gravimetric analysis (TGA) using TGA-Q5000 system (TA instruments, USA) at a heating rate of 20° C./min under nitrogen atmosphere, starting at room temperature up to 600° C.
Thermal gravimetric analysis (TGA) is performed using TGA-Q5000 system (TA Instruments, USA). Samples are heated under nitrogen atmosphere from room temperature to 600° C. at a heating rate of 20° C. min^−1. The results are analyzed using Universal […] version 4.5A build 4.5.0.5 software.

Series [2] can be described thus: EO content in films after melt compounding and processing, determined by TGA. Type of series: physicochemical. The note with it: pure EO in LDPE film without HNTs, initial 4 %. On the procedure: as §1
Table 4 below summarizes the carvacrol and HNTs content in different films (following melt compounding and processing) determined by TGA (initial carvacrol content, pre-processing, was 4 wt % and initial HNTs content was 2 wt %).
The resulting films were studied by thermal gravimetric analysis (TGA) in order to examine the effect of the HNTs carriers on the residual carvacrol content following the harsh high-temperature melt-compounding and processing of PA. Table 5 summarizes the results of these experiments showing carvacrol content in different carvacrol-containing films, determined by TGA.
The EOs content and distribution within the LDPE matrix are important parameters, crucial in determining the mechanical and antimicrobial performance of the nanocomposite systems (R. Shemesh et al., 2015). Thus, the total volatile content within the LDPE-based films was investigated using TGA, and the results are summarized in Table 14 showing carvacrol and thymol concentrations in different LDPE-based films as determined by TGA and FTIR spectroscopy.

The next series has as its system E. coli (ATCC 8739). Nature of the series: Chequerboard antimicrobial susceptibility to pure carvacrol, thymol and their combinations. The class given is cell-based. Conditions: Escherichia coli, ATCC8739. On the procedure:
Bacterial susceptibility to pure carvacrol, thymol and their mixtures was characterized by the standard chequerboard procedure for antimicrobial susceptibility for combination of antimicrobials (Franzot & Casadevall, 1997; Pei, Zhou, Ji, & Xu, 2009).
Accordingly, in exemplary procedures, stock aqueous emulsions of thymol and carvacrol (at a concentration of 6400 mg L^−1 in MillyQ water, […]) are prepared by ultrasonication (Vibra cell VCX 750, Sonics & Materials Inc., USA) for 3 min at a constant amplitude of 40%, on ice bath using small amounts of Tween-80. […] The plate is sealed with SealPlate® (Excel Scientific Inc., Victorville, CV, US) incubated at 37° C. for 4 h under gentle shacking in a microplate reader (Varioskan Flash, Thermo Scientific, USA). Absorbance measurements are recorded at 600 nm every 3 min. […]
The MIC of carvacrol and thymol and their combination against E. coli (ATCC 8739) were determined using the standard chequerboard procedure for antimicrobial susceptibility for combination of antimicrobials (Franzot & Casadevall, 1997; Pei et al., 2009).
FIG. 13A presents characteristic E. coli growth curves in media containing a constant thymol concentration (75 mg L^−1) and varying carvacrol concentrations (0 to 200 mg L^−1). […] While at a lower concentration (100 mg L^−1), a profound lag time of ˜200 min in bacterial growth is recorded. […]

The test system of a further series is E. coli. Nature of the series: Agar diffusion assay (Kirby-Bauer disk diffusion) of LDPE-based films. The class given is cell-based. Conditions: dose additivity model. On the procedure: Fresh LDPE/(HNTs/CV-TY), LDPE/(HNTs/CV) and LDPE/TY films (12 mm in diameter and 150 μm thick) were conditioned at 60° C. for different time intervals to accelerate the release of the EOs from the films. The films were sampled after different durations, and the content of the respective EOs were determined by Fourier-transform infrared spectroscopy in transmission mode. Subsequently, the discs were placed onto the surface of a Luria broth (LB) agar plate seeded with 10^8 CFU ml^−1 of E. coli culture (0.1 mL). […] All tests were performed in triplicates, and at least 15 different specimens are studied for each film type of each. Neat LDPE films were used as a negative control.
Interactions between CV and TY were assessed based on the results obtained by the agar diffusion assay studies. Two common models of synergistic activity are applied:
(1) effect additivity (Axelrad, Howard, & McLean, 2002) and (2) dose additivity (Berenbaum, 1978). […] The second model is based on building curves that illustrate various combinations of two antimicrobials that produce the same effect. Antimicrobial doses of the same efficiency are connected by the additivity line that predicts a zero interaction. Deviations from this prediction can be interpreted as antagonism or synergy. […]
(In general: A growth-free zone around the sample is the usual read-out of agar diffusion tests.)

For series [3] the following is noted: at 20° C.-25° C.; cited from earlier work.

By MIC is commonly meant the lowest concentration found to suppress growth. Regarding `Cc1ccc(C(C)C)cc1O` [carvacrol, Carvacrol], the “temperature at which weight loss (evaporation) of the EO is completed” value in series [1] was “about 165 °C”. Further, the “reduction of EO concentration during high-temperature processing” value in series [2] came out at 55%. In addition, in the series with E. coli (ATCC 8739), the MIC came out at 200 µg/mL. In addition, the “in-film EO concentration giving 19 mm inhibition zone” value with E. coli turned out to be 1.5%. The vapor pressure in series [3] was 0.023 mmHg.
Take `CC(C)=CCCC(C)=CC=O` [citral, Citral]: in series [3], the vapor pressure is on record as 0.22 mmHg.
Consider `C=CC(C)(O)CCC=C(C)C` (centres unmarked) [linalool, Linalool], for which the vapor pressure in series [3] is recorded as 0.17 mmHg.
Regarding `Cc1ccc(C(C)C)c(O)c1` [thymol, Thymol], in series [2], the “reduction of EO concentration during high-temperature processing” value is reported as 35%. The MIC in the series on E. coli (ATCC 8739) (LB medium, 37° C., 4 h, inhibition = lag time above 200 min, read-out: MIC) was 300 µg/mL. Further, the “in-film EO concentration giving 19 mm inhibition zone” value in the series with E. coli was 1.4%. Moreover, the vapor pressure in series [3] is given as 0.002 mmHg.
